Laboratory results taken from patent US20150141251A1, “SPONTANEOUS SELF-FORMING MIXED SURFACTANT NANO-EMULSIONS FROM WATER INSOLUBLE PESTICIDES IN MIXED WATER MISCIBLE SOLVENTS” (priority 2012, published 2015).

Tested on: Alfalfa weevil
Assay: Alfalfa weevil control on sprayed Alfalfa plots
Type: in vivo
Conditions: Treatment No. 2, 0.022 lb active ingredient per acre
Text: The relative effect of pesticidal formulation of the present disclosure was studied for controlling Alfalfa weevil on Alfalfa:
To study the effect of formulation of the present disclosure, four 10×20 sq.ft plots of Alfalfa were set up for each treatment and 20 gal/acre test solution was sprayed with hand sprayer. Then 10 stems of Alfalfa per replication were collected randomly after 4 days and 7 days of treatment. The stems so collected were shaken into 1 gal white container. The evaluation results obtained are provided herein Table No. 5.

CC1(C)C(C=C(Cl)Cl)C1C(=O)OC(C#N)c1ccc(F)c(Oc2ccccc2)c1 (stereo not drawn) [Beta- CYFLUTHRIN]
Alfalfa weevil larvae/10 stems (Mean ± SE) (4 Days after treatment): 0.3 ± 0.3 larvae/10 stems
Alfalfa weevil larvae/10 stems (Mean ± SE) (7 Days after treatment): 0.0 ± 0.0 larvae/10 stems
